Experimental data as given in article PMC12521730, “Quantitative dual-isotope preclinical SPECT/CT imaging and biodistribution of the mercury-197m/g theranostic pair with [^197m/gHg]HgCl2 and a [^197m/gHg]Hg-tetrathiol complex as a platform for radiopharmaceutical development” (EJNMMI Radiopharmacy and Chemistry, 2025).

Test: Ex vivo biodistribution (gamma counter)
Assay type: in vivo, healthy male C57BL/6 mice
Conditions: Hg-197m, 2 h post administration
Procedure: For animal injection, the tracer was prepared at high molar activity. Radiolabeling of H4Tetrathiol (10^–2 M in DMSO; 40 μL for imaging, 20 μL for bioD) (or DMSO, for [^197m/gHg]HgCl2 mice) with [^197m/gHg]HgCl2 (imaging: 26.7 MBq total m + g, 62 μL; bioD: 13.04 MBq total m + g, 31 μL) was performed in a mixture of ammonium acetate buffer (1 M; pH 7; 198 μL for imaging or 149 μL for bioD) and 6 M NaOH (72 μL or 38 μL required to achieve a pH of 7.5 after addition of activity, for imaging or BioD labeling, respectively). The reaction was allowed to stand for 1 h at 37 °C and quantitative (> 99%) non-isolated percentage radiochemical yield (%RCY) was confirmed via the iTLC methods mentioned above. Further, 100 µL of the reaction was diluted with 50 µL of PBS Tween-20 (0.01 M sodium phosphate, 0.15 M NaCl, 0.05% Tween-20) for imaging mice, or 50 µL of the reaction was diluted with 100 µL of PBS Tween-20 for BioD mice. The tracers were prepared immediately before injection to avoid radiolysis and minimize the tracer loss to any surfaces due to its lipophilicity. The injected doses of each isomer, ^197mHg and ^197gHg, were quantified by measuring an aliquot of known volume of each tracer preparation via HPGe gamma spectroscopy and decay corrected for time of injection using the Eqs. (1) and (2).
The study was conducted in compliance with the guidelines set by the Canadian Council on Animal Care (CCAC) and approved by the Animal Care Committee (ACC) at the University of British Columbia (A20-0132). A total of eight healthy male C57BL/6 mice weighing approximately 30 g for group 1 and 25 g for group 2 were used in the study. The mice were divided into two experimental groups: group 1 (n = 4) received free [^197m/gHg]HgCl2, while group 2 (n = 4) received [^197m/gHg]Hg-Tetrathiol. Within each group, one mouse was allocated for imaging, while the rest were designated for ex vivo biodistribution analysis. For SPECT imaging, the designated mice were anesthetized using isoflurane via a precision vaporizer. […] Once anesthetized, each imaging mouse received an intravenous (IV) injection via the lateral tail vein of 150 μL of [^197m/gHg]HgCl2 (0.492 MBq ^197mHg + 3.171 MBq ^197gHg) or [^197m/gHg]Hg-Tetrathiol (0.899 MBq ^197mHg + 4.230 MBq ^197gHg) in PBS Tween-20 (0.01 M Na Phosphate, 0.15 M NaCl, 0.05% Tween-20).
Mice received an IV injection of [^197m/gHg]HgCl2 (0.275 MBq ^197mHg + 1.758 MBq ^197gHg, 150 μL) or [^197m/gHg]Hg-Tetrathiol (0.384 MBq ^197mHg + 1.733 MBq ^197gHg, 150 μL) (n = 3 per group) via the lateral tail vein using a Tailveiner restrainer. After the injection, the mice were returned to their experimental cages and allowed unrestricted movement. Biodistribution studies were conducted 2 h after administration. Mice were humanely euthanized with an overdose of isoflurane followed by cardiac puncture to collect blood pool activity. The organs of interest were fully extracted, cleaned of blood without rinsing, weighed, and analysed for radioactivity using a calibrated gamma counter with the 55–93 keV energy window for ^197gHg and the 110–160 keV energy window for ^197mHg (Packard Cobra II, Perkin Elmer, Waltham, MA, USA). The stomach and intestines were carefully cleaned prior to analysis to remove residual contents. For tissues and fluids that could not be fully removed (muscle, blood and bone) activity values were extrapolated based on standardised organ weights for age- and sex-matched mice tables to ensure accurate normalization (Davies and Morris [1993]; Foster et al. [2014]). The stomach and whole intestines were cleaned before analysis. The radioactivity measurements were decay corrected for time of injection using the Eqs. (1) and (2). The results are reported as the percentage of the injected activity per gram of tissue (%IA/g) and percentage of the injected activity per tissue (%IA/organ).

## O=C(CC[S-])OCC(COC(=O)CC[S-])(COC(=O)CC[S-])COC(=O)CC[S-].[Hg+2] [[^197m/gHg]Hg-Tetrathiol]
  Animal 2 (%IA/g) m: blood: 0.13 %IA/g
  Animal 2 (%IA/g) m: bone: 1.62 %IA/g
  Animal 2 (%IA/g) m: brain: 0.02 %IA/g
  Animal 2 (%IA/g) m: feces: 0.05 %IA/g
  Animal 2 (%IA/g) m: heart: 0.59 %IA/g
  Animal 2 (%IA/g) m: kidneys: 2.35 %IA/g
  Animal 2 (%IA/g) m: large intestine: 0.05 %IA/g
  Animal 2 (%IA/g) m: lungs: 7.04 %IA/g
  Animal 2 (%IA/g) m: muscle: 0.02 %IA/g
  Animal 2 (%IA/g) m: pancreas: 0.04 %IA/g
  Animal 2 (%IA/g) m: small intestine: 0.08 %IA/g
  Animal 2 (%IA/g) m: spleen: 79.95 %IA/g
  Animal 2 (%IA/g) m: stomach: 0.37 %IA/g
  Animal 2 (%IA/g) m: tail: 1.39 %IA/g
  Animal 2 (%IA/g) m: urine: 0.03 %IA/g
  Animal 3 (%IA/g) m: bladder: 0.04 %IA/g
  Animal 3 (%IA/g) m: blood: 0.15 %IA/g
  Animal 3 (%IA/g) m: bone: 1.38 %IA/g
  Animal 3 (%IA/g) m: brain: 0.04 %IA/g
  Animal 3 (%IA/g) m: feces: 0.01 %IA/g
  Animal 3 (%IA/g) m: heart: 0.70 %IA/g
  Animal 3 (%IA/g) m: kidneys: 3.71 %IA/g
  Animal 3 (%IA/g) m: large intestine: 0.12 %IA/g
  Animal 3 (%IA/g) m: lungs: 9.69 %IA/g
  Animal 3 (%IA/g) m: muscle: 0.02 %IA/g
  Animal 3 (%IA/g) m: pancreas: 0.09 %IA/g
  Animal 3 (%IA/g) m: small intestine: 0.10 %IA/g
  Animal 3 (%IA/g) m: spleen: 108.27 %IA/g
  Animal 3 (%IA/g) m: stomach: 1.02 %IA/g
  Animal 3 (%IA/g) m: tail: 0.66 %IA/g
  Animal 3 (%IA/g) m: urine: 0.03 %IA/g
  Animal 4 (%IA/g) m: bladder: 0.07 %IA/g
  Animal 4 (%IA/g) m: blood: 0.12 %IA/g
  Animal 4 (%IA/g) m: bone: 1.62 %IA/g
  Animal 4 (%IA/g) m: brain: 0.02 %IA/g
  Animal 4 (%IA/g) m: feces: 0.01 %IA/g
  Animal 4 (%IA/g) m: heart: 0.64 %IA/g
  Animal 4 (%IA/g) m: kidneys: 3.03 %IA/g
  Animal 4 (%IA/g) m: large intestine: 0.05 %IA/g
  Animal 4 (%IA/g) m: lungs: 7.69 %IA/g
  Animal 4 (%IA/g) m: muscle: 0.02 %IA/g
  Animal 4 (%IA/g) m: pancreas: 0.05 %IA/g
  Animal 4 (%IA/g) m: small intestine: 0.15 %IA/g
  Animal 4 (%IA/g) m: spleen: 101.18 %IA/g
  Animal 4 (%IA/g) m: stomach: 0.12 %IA/g
  Animal 4 (%IA/g) m: tail: 7.32 %IA/g
  Animal 4 (%IA/g) m: urine: 0.04 %IA/g
  Average Hg-197m (%IA/g): bladder: 0.044 %IA/g
  Average Hg-197m (%IA/g): blood: 0.13 %IA/g
  Average Hg-197m (%IA/g): bone: 1.68 %IA/g
  Average Hg-197m (%IA/g): brain: 0.028 %IA/g
  Average Hg-197m (%IA/g): feces: 0.026 %IA/g
  Average Hg-197m (%IA/g): heart: 0.60 %IA/g
  Average Hg-197m (%IA/g): kidneys: 3.65 %IA/g
  Average Hg-197m (%IA/g): large intestine: 0.091 %IA/g
  Average Hg-197m (%IA/g): lungs: 8.38 %IA/g
  Average Hg-197m (%IA/g): muscle: 0.017 %IA/g
  Average Hg-197m (%IA/g): pancreas: 0.056 %IA/g
  Average Hg-197m (%IA/g): small intestine: 0.12 %IA/g
  Average Hg-197m (%IA/g): spleen: 91.06 %IA/g
  Average Hg-197m (%IA/g): stomach: 0.42 %IA/g
  Average Hg-197m (%IA/g): tail: 2.77 %IA/g
  Average Hg-197m (%IA/g): urine: 0.033 %IA/g
